Laboratory results as given in US10375956B2, “Herbicidally active 2-(substituted-phenyl)-cyclopentane-1,3-dione compounds and derivatives thereof” (Syngenta Limited, priority 2013, dated 2019).

Experiments:
Assay type in all cases: in vivo
[1] = test system: Zea mays (ZEAMX, corn/maize); experiment: Test 1 glasshouse assay, pre-emergence herbicidal activity; conditions: 312 h, visual evaluation after 13 days, read-out: Percentage phytotoxicity ZEAMX
Outline: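 Pre-emergence spray 1 d post-sowing; acetone/water 50:50, 0.5% Tween 20 vehicle. Glasshouse 24/16° C, 14 h light, 65% RH. Visual % phytotoxicity at 13 d, 100% = total damage, 0% = none.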

[2] = test system: Lolium perenne (LOLPE); experiment: Test 2 glasshouse assay (IF50 formulation, X-77), pre-emergence herbicidal activity; conditions: 480 h, 250 g/ha, 20DAA, read-out: Percentage phytotoxicity LOLPE
Procedure: (§1) Seeds of a variety of monocotyledonous and dicotyledonous test plants are sown in standard soil in pots. The plants are cultivated for one day (for pre-emergence) or for about 12 days (for post-emergence) under controlled conditions in a glasshouse (warm climate species at 24/18° C., cool climate species at 20/16° C., both at day/night; 16 hours light; 65% humidity).
(§2) An “instant formulation”, known as the “IF50”, containing 50 g/liter (i.e. 5% w/v) of the “technical” (i.e. unformulated) active ingredient is prepared by dissolving the active ingredient in a mixture of organic solvents and emulsifier, details of which are provided in the Table below. This IF50 is then mixed with a small, variable amount of acetone to aid dissolution, before addition of a 0.2% v/v aqueous solution of the adjuvant X-77 (which is a mixture of alkyl aryl polyoxyethylene glycols and free fatty acids in isopropanol, CAS Registry number 11097-66-8), as the aqueous diluent, to form an aqueous spray solution which contains a predetermined concentration of the active ingredient (which varies depending on the application rate of the active ingredient to the plants) and 0.2% v/v of the adjuvant X-77. This aqueous spray solution is then sprayed onto the plants, after one day's cultivation (for pre-emergence), or after about 12 days' cultivation (range=10-13 days) (for post-emergence).
(§3) The test plants are then grown on, in a glasshouse (greenhouse) under controlled conditions (warm climate species at 24/18° C., cool climate species at 20/16° C., both at day/night; 16 hours light; 65% humidity) and are watered twice daily. 15 days after application of the test herbicide (15DAA) (for post-emergence), and 20 days after application of the test herbicide (20DAA) (for pre-emergence), the test plants are evaluated visually, and an assessed percentage phytotoxicity score is given for each herbicidal application on each plant species (with 100%=total damage to plant; 0%=no damage to plant).
Cool climate (“cool season”) grassy monocotyledonous weeds: Alopecurus myosuroides (ALOMY), Avena fatua (AVEFA), Lolium perenne (LOLPE).

[3] = test system: Brachiaria plantaginea (BRAPL); experiment: as above; conditions: Urochloa plantaginea, 480 h, 250 g/ha, 20DAA, read-out: Percentage phytotoxicity BRAPL
Procedure: as §1, §2, §3
(§4) Warm climate (“warm season”) grassy monocotyledonous weeds: Setaria faberi (SETFA), Panicum miliaceum (PANMI), Sorghum vulgare Pers. (SORVU) (or Sorghum bicolor (L) Moench ssp. Bicolor), Digitaria sanguinalis (DIGSA), Echinochloa crus-galli (ECHCG), and Brachiaria plantaginea (BRAPL).

[4] = test system: Digitaria sanguinalis (DIGSA); experiment: as above; conditions: 480 h, 250 g/ha, 20DAA, read-out: Percentage phytotoxicity DIGSA
Procedure: as §1, §2, §3, §4

[5] = test system: Echinochloa crus-galli (ECHCG); experiment: as above; conditions: 480 h, 250 g/ha, 20DAA, read-out: Percentage phytotoxicity ECHCG
Procedure: as §1, §2, §3, §4

[6] = test system: Panicum miliaceum (PANMI); experiment: as above; conditions: 480 h, 250 g/ha, 20DAA, read-out: Percentage phytotoxicity PANMI
Procedure: as §1, §2, §3, §4

[7] = test system: Setaria faberi (SETFA); experiment: as above; conditions: 480 h, 250 g/ha, 20DAA, read-out: Percentage phytotoxicity SETFA
Procedure: as §1, §2, §3, §4

[8] = test system: Sorghum vulgare Pers. (SORVU); experiment: as above; conditions: Sorghum bicolor, 480 h, 250 g/ha, 20DAA, read-out: Percentage phytotoxicity SORVU
Procedure: as §1, §2, §3, §4

[9] = test system: Brachiaria plantaginea (BRAPL); experiment: Test 2 glasshouse assay (IF50 formulation, X-77), post-emergence herbicidal activity; conditions: Urochloa plantaginea, 360 h, 15 DAA, visual score, read-out: Post-emergence herbicidal activity (percentage phytotoxicity) BRAPL; for pest or weed control at 30 g/ha: application rate 30 g/ha; for pest or weed control at 250 g/ha: application rate 250 g/ha
Procedure: as §1, §2, §3, §4

[10] = test system: Digitaria sanguinalis (DIGSA); experiment: as above; conditions: 360 h, 15 DAA, visual score, read-out: Post-emergence herbicidal activity (percentage phytotoxicity) DIGSA; for pest or weed control at 30 g/ha: application rate 30 g/ha; for pest or weed control at 250 g/ha: application rate 250 g/ha
Procedure: as §1, §2, §3, §4

[11] = test system: Echinochloa crus-galli (ECHCG); experiment: as above; conditions: 360 h, 15 DAA, visual score, read-out: Post-emergence herbicidal activity (percentage phytotoxicity) ECHCG; for pest or weed control at 30 g/ha: application rate 30 g/ha; for pest or weed control at 250 g/ha: application rate 250 g/ha
Procedure: as §1, §2, §3, §4

[12] = test system: Panicum miliaceum (PANMI); experiment: as above; conditions: 360 h, 15 DAA, visual score, read-out: Post-emergence herbicidal activity (percentage phytotoxicity) PANMI; for pest or weed control at 30 g/ha: application rate 30 g/ha; for pest or weed control at 250 g/ha: application rate 250 g/ha
Procedure: as §1, §2, §3, §4

[13] = test system: Setaria faberi (SETFA); experiment: as above; conditions: 360 h, 15 DAA, visual score, read-out: Post-emergence herbicidal activity (percentage phytotoxicity) SETFA; for pest or weed control at 30 g/ha: application rate 30 g/ha; for pest or weed control at 250 g/ha: application rate 250 g/ha
Procedure: as §1, §2, §3, §4

[14] = test system: Sorghum vulgare Pers. (SORVU); experiment: as above; conditions: Sorghum bicolor, 360 h, 15 DAA, visual score, read-out: Post-emergence herbicidal activity (percentage phytotoxicity) SORVU; for pest or weed control at 30 g/ha: application rate 30 g/ha; for pest or weed control at 250 g/ha: application rate 250 g/ha
Procedure: as §1, §2, §3, §4

| SMILES | pest or weed control at 250 g/ha [1] [%] | pest or weed control at 250 g/ha [2] [%] | pest or weed control at 250 g/ha [3] [%] | pest or weed control at 250 g/ha [4] [%] | pest or weed control at 250 g/ha [5] [%] | pest or weed control at 250 g/ha [6] [%] | pest or weed control at 250 g/ha [7] [%] | pest or weed control at 250 g/ha [8] [%] | pest or weed control at 30 g/ha [9] [%] | pest or weed control at 250 g/ha [9] [%] | pest or weed control at 30 g/ha [10] [%] | pest or weed control at 250 g/ha [10] [%] | pest or weed control at 30 g/ha [11] [%] | pest or weed control at 250 g/ha [11] [%] | pest or weed control at 30 g/ha [12] [%] | pest or weed control at 250 g/ha [12] [%] | pest or weed control at 30 g/ha [13] [%] | pest or weed control at 250 g/ha [13] [%] | pest or weed control at 30 g/ha [14] [%] | pest or weed control at 250 g/ha [14] [%] | further results |
| --- | --- | --- | --- | --- | --- | --- | --- | --- | --- | --- | --- | --- | --- | --- | --- | --- | --- | --- | --- | --- | --- |
| C#CCC1CC(=O)C(c2c(C)cc(-c3ccc(Cl)cn3)cc2C)C1=O (stereo not drawn) [Compound A2] | 100 | 80 | 80 | 70 | 80 | 100 | 90 | 80 | 100 | 100 | 100 | 100 | 100 | 100 | 100 | 100 | 100 | 100 | 100 | 100 | – |
| C#CCC1CC(=O)C(c2c(F)cc(-c3ccc(F)c(F)c3)cc2OC)C1=O (stereo not drawn) [Compound A22] | 100 | 20 | 90 | 90 | 70 | 80 | 90 | 70 | 90 | – | 70 | – | 70 | – | 60 | – | 80 | – | 70 | – | pest or weed control at 125 g/ha ([9]; application rate 125 g/ha): 100%; pest or weed control at 125 g/ha ([10]; application rate 125 g/ha): 100%; pest or weed control at 125 g/ha ([11]; application rate 125 g/ha): 100%; pest or weed control at 125 g/ha ([12]; application rate 125 g/ha): 100%; pest or weed control at 125 g/ha ([13]; application rate 125 g/ha): 100%; pest or weed control at 125 g/ha ([14]; application rate 125 g/ha): 100% |
| C#CCC1CC(=O)C(c2c(Cl)cc(-c3ccc(Cl)cc3)cc2OC)C1=O (stereo not drawn) [Compound A11, 2-[2-chloro-4-(4-chlorophenyl)-6-methoxyphenyl]-4-prop-2-ynylcyclopentane-1,3-dione] | 100 | 60 | 100 | 90 | 70 | 60 | 90 | 80 | 100 | 100 | 100 | 100 | 100 | 100 | 100 | 100 | 80 | 100 | 100 | 100 | – |
